Results published in patent US20140088069A1, “NOVEL ANTIBACTERIAL COMBINATION THERAPY” (priority 2011, published 2014).
Like-named read-outs stand apart in the source and are kept apart here.

What was measured:
HA-MRSA USA500 = assay: Checkerboard (FIC) analysis, HA-MRSA USA500; assay type: cell-based, Staphylococcus aureus
RN4220 = assay: Checkerboard (FIC) analysis, RN4220; assay type: cell-based, Staphylococcus aureus
Protocol: (§3) Here a matrix of drug concentrations were tested in combinations at the concentrations shown (μg/mL). […] FIC index is a measure of synergy and is calculated as follows: FIC index=FIC (cefuroxime)+FIC (drug compound).

HA-MRSA USA100/800/NY = assay: Checkerboard (FIC) analysis, HA-MRSA USA100/800/NY; assay type: cell-based, Staphylococcus aureus
HA-MRSA [1] = assay: Checkerboard (FIC) analysis, HA-MRSA (Table 1 r10); assay type: cell-based, Staphylococcus aureus; settings: HA-MRSA (Table 1 r10)
HA-MRSA [2] = assay: Checkerboard (FIC) analysis, HA-MRSA (Table 1 r16); assay type: cell-based, Staphylococcus aureus; settings: HA-MRSA (Table 1 r16)
HA-MRSA EMRSA15 = assay: Checkerboard (FIC) analysis, HA-MRSA EMRSA15; assay type: cell-based, Staphylococcus aureus
HA-MRSA USA200/EMRSA16 = assay: Checkerboard (FIC) analysis, HA-MRSA USA200/EMRSA16; assay type: cell-based, Staphylococcus aureus
CA-MRSA USA400/MW2 = assay: Checkerboard (FIC) analysis, CA-MRSA USA400/MW2; assay type: cell-based, Staphylococcus aureus
HA-MRSA [3] = assay: Checkerboard (FIC) analysis, HA-MRSA (Table 1 r13); assay type: cell-based, Staphylococcus aureus; settings: HA-MRSA (Table 1 r13)
Protocol: as §3

HA-MRSA USA600 = assay: Checkerboard (FIC) analysis, HA-MRSA USA600; assay type: cell-based, Staphylococcus aureus
SA178R1 = assay: Checkerboard (FIC) analysis, SA178R1; assay type: cell-based, Staphylococcus aureus
CA-MRSA USA300 = assay: Checkerboard (FIC) analysis against CA-MRSA USA300; assay type: cell-based, Staphylococcus aureus; settings: for MIC: Staphylococcus aureus
Protocol: (§1) Here a matrix of drug concentrations were tested in combinations at the concentrations shown (μg/mL). Greyscale indicates growth—darker is more growth, lighter is less growth. FIC index is a measure of synergy and is calculated as follows: FIC index=FIC (cefuroxime)+FIC (drug compound).
(§2) The combination of ticlopidine and cefuroxime was further tested as above against a variety of S. aureus strains as shown in Table 1 below.
FIC index=FIC (β-lactam)+FTC (ticlopidine). […]

MRSA = assay: Analogues in combination with cefuroxime against MRSA (FIC index); assay type: cell-based, Staphylococcus aureus; settings: compound in combination with cefuroxime; MRSA (Table 5)
Protocol: A series of analogues were synthesized (as shown in Table 5) in which the thienopyridine ring was removed.
These were tested in combination with cefuroxime against MRSA and results are shown below (Table 6).

S. aureus strains = tested on: S. aureus strains
Protocol: as §1, §2

[4] = tested on: S. aureus (Newman strain); assay: Checkerboard (FIC) analysis against S. aureus Newman; assay type: cell-based, Staphylococcus aureus; settings: Newman
[5] = Staphylococcus aureus, ticlopidine alone, read-out: MIC ticlopidine

## Clc1ccccc1CN1CCc2sccc2C1 [Compound 1, 5-(2-Chloro-benzyl)-4,5,6,7-tetrahydro-thieno[3,2-c]pyridine]
HA-MRSA USA500; [5]
  MIC: > 256 µg/mL
HA-MRSA USA500; in the presence of cefuroxime
  FIC ticlopidine: 1
HA-MRSA USA500; ticlopidine + cefuroxime
  FIC index: ≦2
RN4220; Staphylococcus aureus, ticlopidine alone
  MIC: > 128 µg/mL
RN4220; in the presence of cefuroxime
  FIC ticlopidine: 1
RN4220; ticlopidine + cefuroxime
  FIC index: ≦2
HA-MRSA USA100/800/NY; [5]
  MIC: > 256 µg/mL
HA-MRSA USA100/800/NY; in the presence of cefuroxime
  FIC ticlopidine: 0.125
HA-MRSA USA100/800/NY; ticlopidine + cefuroxime
  FIC index: ≦0.250
HA-MRSA [1]; in the presence of cefuroxime
  FIC ticlopidine: 0.032
HA-MRSA [1]; ticlopidine + cefuroxime
  FIC index: ≦0.282
HA-MRSA [1]; [5]
  MIC: > 256 µg/mL
HA-MRSA [2]; in the presence of cefuroxime
  FIC ticlopidine: 0.063
HA-MRSA [2]; ticlopidine + cefuroxime
  FIC index: ≦0.188
HA-MRSA [2]; [5]
  MIC: > 256 µg/mL
HA-MRSA EMRSA15; [5]
  MIC: > 256 µg/mL
HA-MRSA EMRSA15; in the presence of cefuroxime
  FIC ticlopidine: 0.063
HA-MRSA EMRSA15; ticlopidine + cefuroxime
  FIC index: ≦0.125
HA-MRSA USA200/EMRSA16; [5]
  MIC: > 256 µg/mL
HA-MRSA USA200/EMRSA16; in the presence of cefuroxime
  FIC ticlopidine: 0.063
HA-MRSA USA200/EMRSA16; ticlopidine + cefuroxime
  FIC index: ≦0.095
CA-MRSA USA400/MW2; [5]
  MIC: > 256 µg/mL
CA-MRSA USA400/MW2; in the presence of cefuroxime
  FIC ticlopidine: 0.063
CA-MRSA USA400/MW2; ticlopidine + cefuroxime
  FIC index: ≦0.125
HA-MRSA [3]; in the presence of cefuroxime
  FIC ticlopidine: 0.016
HA-MRSA [3]; ticlopidine + cefuroxime
  FIC index: ≦0.266
HA-MRSA [3]; [5]
  MIC: > 256 µg/mL
HA-MRSA USA600; [5]
  MIC: > 256 µg/mL
HA-MRSA USA600; in the presence of cefuroxime
  FIC ticlopidine: 0.032
HA-MRSA USA600; ticlopidine + cefuroxime
  FIC index: ≦0.040
SA178R1; [5]
  MIC: > 128 µg/mL
SA178R1; in the presence of cefuroxime
  FIC ticlopidine: 1
SA178R1; ticlopidine + cefuroxime
  FIC index: ≦2
CA-MRSA USA300; CA-MRSA USA300 (Table 1), in the presence of cefuroxime
  FIC ticlopidine: 0.032
CA-MRSA USA300; CA-MRSA USA300 (Table 1), ticlopidine + cefuroxime
  FIC index: ≦0.063
CA-MRSA USA300; CA-MRSA USA300 (Table 1), ticlopidine alone, read-out: MIC ticlopidine
  MIC: > 256 µg/mL
CA-MRSA USA300; thienopyridine alone, CA-MRSA USA300 (Table 4), read-out: MIC thienopyridine
  MIC: > 128 µg/mL
CA-MRSA USA300; in combination with cefuroxime
  drug-drug interaction with cefuroxime (checkerboard secondary screen): synergistic interactions
CA-MRSA USA300; in the presence of cefuroxime, CA-MRSA USA300 (Table 4)
  FIC thienopyridine: 0.13
CA-MRSA USA300; thienopyridine in combination with cefuroxime, CA-MRSA USA300 (Table 4)
  FIC index: ≦0.16
CA-MRSA USA300; ticlopidine in combination with cefuroxime, CA-MRSA USA 300, FIG. 2
  FIC index: ≤ 0.12
MRSA
  FIC index: ≦0.125
S. aureus strains; ticlopidine + cefuroxime, including USA300
  methicillin-resistant strains (Canadian MRSA collection) in which potent synergy was retained: 7 of 10
S. aureus strains; ticlopidine alone against the S. aureus strains of Table 1
  antibacterial activity alone: no antibacterial activity alone
S. aureus strains; ticlopidine in combination with a β-lactam, even in β-lactam-resistant S. aureus
  potentiation of the activity of the β-lactams: over 32 fold
[4]; in the presence of cefuroxime
  FIC ticlopidine: 0.125
[4]; ticlopidine + cefuroxime
  FIC index: ≦0.250
[4]; [5]
  MIC: > 256 µg/mL
